According to patent publication US8445636B2, “Antimicrobial and anticancer lipopeptides” (Yeda Research & Development Co. Ltd., priority 2003, dated 2013):
Converted amounts (≈) assume the structure as drawn. Like-named read-outs stand apart in the source and are kept apart here. Non-standard residues stand in square brackets, D forms with d. Residues, ends and D or L forms follow the SMILES beside them. *: point of attachment. Lauroyl = CCCCCCCCCCCC(=O)*

Experiments:
[1] = system: Candida albicans ATCC 10231; experiment: microbe, parasite or virus in culture; assay type: cell-based
Procedure, shortened: (§1)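 In this assay, each strain, prepared at 1×10^4 CFU/ml before mixing, met serial twofold peptide dilutions in RPMI 1640 buffered with 0.165 M MOPS. Unless noted, pH was 7.4; a pH 5.5 condition was also run. After 24-48 h incubation (35 °C, agitated), wells were scored at 620 nm for total inhibition.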

[2] = system: Cryptococcus neoformans ATCC 66031; experiment: microbe, parasite or virus in culture; assay type: cell-based
Procedure, shortened: as §1

[3] = system: Aspergillus fumigatus ATCC 26430; experiment: microbe, parasite or virus in culture; assay type: cell-based
E. coli D21 = assay type: cell-based
[4] = system: Prostate cancer cell line 22RV1; experiment: Cytotoxicity, XTT viability; assay type: cell-based, human; settings: 24 h incubation, read-out: LC50, Prostate cancer 22RV1
Protocol: (§2) Prostate cancer cell lines (CL1 and 22RV1; ATCC, USA) were grown in RPMI-1640 supplemented with 10% FCS (Biological Industries, Beit Haemek, Israel). N1H-3T3 mouse fibroblast cell line (ATCC, USA) was grown in DMEM supplemented with 10% bovine serum. To test cytotoxicity against the cancer cells, aliquots of medium containing 1×10^4 cells were distributed into a 96-well plate (Falcon). After one day, the media were replaced with 90 μl of fresh media and 10 μl of a solution containing different concentrations of the peptides. The plate was then incubated for 24 h before adding to each well 50 μl of XTT reaction solution (Biological Industries, Beit Haemek, Israel); viability was determined as previously described (Papo et al., (2003) J. Biol. Chem. 278:21018-23). The LC50 (concentration at which 50% of the cells die) for each peptide was obtained from the dose-dependent cell viability curves.

[5] = system: Prostate cancer cell line CL1; experiment: Cytotoxicity, XTT viability; assay type: cell-based, human; settings: 24 h incubation, read-out: LC50, Prostate cancer CL1
Protocol: as §2

[6] = Cytotoxicity, XTT viability, non-cancer cells; assay type: cell-based; settings: mouse, non-cancer cell line, 24 h incubation, read-out: LC50, 3T3
Procedure, shortened: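 Cells (CL1, 22RV1 in RPMI-1640/10% FCS; NIH-3T3 fibroblasts in DMEM/10% bovine serum) seeded at 1×10^4/well, next day exposed to graded peptide concentrations for 24 h. Viability read by XTT; LC50 (50% cell death) taken from dose-dependent viability curves.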

[7] = system: Acinetobacter baumannii ATCC 19606; assay type: cell-based
Procedure, shortened: (§3)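 Values are MICs from microdilution in LB (pH 7.4 unless noted) with bacteria at 1×10^6 CFU/ml before 1:1 mixing, read at 600 nm after 18-20 h, 37° C.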

[8] = system: Staphylococcus aureus ATCC 6538P; assay type: cell-based
Procedure, shortened: as §3

[9] = system: Escherichia coli ATCC 25922; assay type: cell-based
Procedure, shortened: as §3

[10] = system: Pseudomonas aeruginosa ATCC 27853; assay type: cell-based
Procedure, shortened: as §3

SMILES: CCCCCCCCCCCC(=O)N[C@H](CC(C)C)C(=O)N[C@@H](CCCNC(=N)N)C(=O)N[C@@H](CCCNC(=N)N)C(=O)N[C@H](CC(C)C)C(=O)N[C@H](CC(C)C)C(=O)N[C@@H](CCCNC(=N)N)C(=O)N[C@@H](CCCNC(=N)N)C(=O)N[C@H](CC(C)C)C(=O)N[C@H](CC(C)C)C(=O)N[C@@H](CCCNC(=N)N)C(=O)N[C@@H](CCCNC(=N)N)C(=O)N[C@H](CC(C)C)C(N)=O [lipopeptide 25, (CH3-(CH2)10-CO-)-D-Leu-Arg-Arg-D-Leu-D-Leu-Arg-Arg-D-Leu-D-Leu-Arg-Arg-D-Leu-NH2] (Lauroyl-[dL]RR[dL][dL]RR[dL][dL]RR[dL]-NH2)
- MIC ([1]; ATCC 10231, pH 5.5, read-out: Minimal inhibitory concentrations, C. Albicans With serum): 100 µM (≈ 182 µg/mL)
- MIC ([1]; ATCC 10231, pH 5.5, read-out: Minimal inhibitory concentrations, C. Albicans Without serum): 12.5 µM (≈ 22.7 µg/mL)
- MIC ([1]; ATCC 10231, pH 7.4, read-out: Minimal inhibitory concentrations, C. Albicans With serum): 100 µM (≈ 182 µg/mL)
- MIC ([1]; ATCC 10231, pH 7.4, read-out: Minimal inhibitory concentrations, C. Albicans Without serum): 3.125 µM (≈ 5.67 µg/mL)
- MIC ([2]; ATCC 66031, pH 5.5, read-out: Minimal inhibitory concentrations, C. Neofor. With serum): 2.34 µM (≈ 4.25 µg/mL)
- MIC ([2]; ATCC 66031, pH 5.5, read-out: Minimal inhibitory concentrations, C. Neofor. Without serum): <0.78 µM
- MIC ([2]; ATCC 66031, pH 7.4, read-out: Minimal inhibitory concentrations, C. Neofor. With serum): <0.78 µM
- MIC ([2]; ATCC 66031, pH 7.4, read-out: Minimal inhibitory concentrations, C. Neofor. Without serum): <0.78 µM
- MIC ([3]; ATCC 26430, pH 5.5, read-out: Minimal inhibitory concentrations, A. Fumig. With serum): 50 µM (≈ 90.8 µg/mL)
- MIC ([3]; ATCC 26430, pH 5.5, read-out: Minimal inhibitory concentrations, A. Fumig. Without serum): 6.25 µM (≈ 11.3 µg/mL)
- MIC ([3]; ATCC 26430, pH 7.4, read-out: Minimal inhibitory concentrations, A. Fumig. With serum): 50 µM (≈ 90.8 µg/mL)
- MIC ([3]; ATCC 26430, pH 7.4, read-out: Minimal inhibitory concentrations, A. Fumig. Without serum): 3.125 µM (≈ 5.67 µg/mL)
- Minimal inhibitory concentrations, E. Coli D21 (E. coli D21; D21, pH 5.5): 50 µM (≈ 90.8 µg/mL)
- Minimal inhibitory concentrations, E. Coli D21 (E. coli D21; D21, pH 7.4): 50 µM (≈ 90.8 µg/mL)
- CC50 [4]: 3.12 µM
- CC50 [5]: 3.12 µM
- CC50 at 24 h [6]: 100 µM
- Minimal inhibitory concentrations, A. baumannii ATCC 19606 ([7]; ATCC 19606, pH 5.5): 75 µM (≈ 136 µg/mL)
- Minimal inhibitory concentrations, A. baumannii ATCC 19606 ([7]; ATCC 19606, pH 7.4): >100 µM
- Minimal inhibitory concentrations, S. aureus II ATCC 6538P ([8]; ATCC 6538, pH 5.5): 50 µM (≈ 90.8 µg/mL)
- Minimal inhibitory concentrations, S. aureus II ATCC 6538P ([8]; ATCC 6538, pH 7.4): 12.5 µM (≈ 22.7 µg/mL)
- Minimal inhibitory concentrations, E. Coli ATCC 25922 ([9]; ATCC 25922, pH 5.5): 100 µM (≈ 182 µg/mL)
- Minimal inhibitory concentrations, E. Coli ATCC 25922 ([9]; ATCC 25922, pH 7.4): >100 µM
- Minimal inhibitory concentrations, P. Aeruginosa ATCC 27853 ([10]; ATCC 27853, pH 5.5): 50 µM (≈ 90.8 µg/mL)
- Minimal inhibitory concentrations, P. Aeruginosa ATCC 27853 ([10]; ATCC 27853, pH 7.4): 50 µM (≈ 90.8 µg/mL)
